Experimental data: PubChem BioAssay (NCI)
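Results reflect a 48-hour exposure of cells in 96-well plates to compound at five concentrations. TGI: total growth inhibition.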

Key:
Experiment in all cases: growth of human tumour cells (NCI), 48 h
[1] = system: SW-620 colon
[2] = system: UACC-62 melanoma
[3] = system: SK-MEL-2 melanoma
[4] = system: PC-3 prostate
[5] = system: CCRF-CEM leukemia
[6] = system: IGROV1 ovarian
[7] = system: ACHN renal
[8] = system: DU-145 prostate
[9] = system: NCI-H460 lung
[10] = system: NCI/ADR-RES ovarian
[11] = system: SNB-19 CNS
[12] = system: HCT-116 colon
[13] = system: K-562 leukemia
[14] = system: UACC-257 melanoma
[15] = system: 786-0 renal
[16] = system: SK-MEL-28 melanoma
[17] = system: U251 CNS
[18] = system: MDA-N
[19] = system: COLO 205 colon
[20] = system: HCT-15 colon
[21] = system: KM12 colon
[22] = system: MDA-MB-435
[23] = system: SN12C renal
[24] = system: MDA-MB-231 breast
[25] = system: CAKI-1 renal
[26] = system: LOX IMVI melanoma
[27] = system: OVCAR-3 ovarian
[28] = system: HT29 colon
[29] = system: A549 NSCLC
[30] = system: RXF 393 renal
[31] = system: TK-10 renal
[32] = system: A498 renal
[33] = system: OVCAR-5 ovarian
[34] = system: NCI-H226 lung
[35] = system: M14 melanoma
[36] = system: HS 578T breast
[37] = system: HL-60(TB) leukemia
[38] = system: SK-OV-3 ovarian
[39] = system: HOP-92 NSCLC
[40] = system: SF-539 CNS
[41] = system: OVCAR-4 ovarian
[42] = system: NCI-H23 lung
[43] = system: MCF7 breast
[44] = system: SK-MEL-5 melanoma
[45] = system: SR leukemia
[46] = system: SNB-75 CNS
[47] = system: HCC-2998 colon
[48] = system: HOP-62 NSCLC
[49] = system: BT-549 breast
[50] = system: SF-295 CNS
[51] = system: UO-31 renal
[52] = system: NCI-H522 lung
[53] = system: SF-268 CNS
[54] = system: MOLT-4 leukemia
[55] = system: MALME-3M melanoma
[56] = system: EKVX NSCLC
[57] = system: T-47D breast
[58] = system: OVCAR-8 ovarian

**Q.** `O=C(NCCNCCNC(=O)c1cc(-c2ccccc2)nc2ccccc12)c1cc(-c2ccccc2)nc2ccccc12` was tested. Which TGI [1] did it give?
**A.** Its TGI is 3.25 µM.

**Q.** What about the TGI [2] of the same compound?
**A.** Its TGI is 5.77 µM.

**Q.** And the TGI [3]?
**A.** The TGI was 3.13 µM.

**Q.** And the TGI [4]?
**A.** The TGI was 8.88 µM.

**Q.** What about the TGI [5] of the same compound?
**A.** The TGI was > 100 µM.

**Q.** And the TGI [6]?
**A.** Its TGI is 7.25 µM.

**Q.** And the TGI [7]?
**A.** Its TGI is 4.85 µM.

**Q.** What about the TGI [8] of the same compound?
**A.** The TGI was 6.56 µM.

**Q.** And the TGI [9]?
**A.** The TGI was 2.97 µM.

**Q.** And the TGI [10]?
**A.** Its TGI is 4.18 µM.

**Q.** What about the TGI [11] of the same compound?
**A.** Its TGI is 24.3 µM.

**Q.** What about the TGI [12] of the same compound?
**A.** Its TGI is 3.18 µM.

**Q.** What about the TGI [13] of the same compound?
**A.** Its TGI is 3.99 µM.

**Q.** What about the TGI [14] of the same compound?
**A.** Its TGI is 3.92 µM.

**Q.** What about the TGI [15] of the same compound?
**A.** Its TGI is 3.39 µM.

**Q.** And the TGI [16]?
**A.** The TGI was 3.25 µM.

**Q.** What about the TGI [17] of the same compound?
**A.** Its TGI is 4.07 µM.

**Q.** What about the TGI [18] of the same compound?
**A.** The TGI was 3.42 µM.

**Q.** And the TGI [19]?
**A.** Its TGI is 3.8 µM.

**Q.** What about the TGI [20] of the same compound?
**A.** The TGI was 8.19 µM.

**Q.** And the TGI [21]?
**A.** Its TGI is 4.03 µM.

**Q.** What about the TGI [22] of the same compound?
**A.** The TGI was 3.34 µM.

**Q.** What about the TGI [23] of the same compound?
**A.** Its TGI is 7.59 µM.

**Q.** And the TGI [24]?
**A.** Its TGI is 7.32 µM.

**Q.** What about the TGI [25] of the same compound?
**A.** Its TGI is 24.1 µM.

**Q.** And the TGI [26]?
**A.** Its TGI is 3.05 µM.

**Q.** And the TGI [27]?
**A.** The TGI was 5.73 µM.

**Q.** And the TGI [28]?
**A.** The TGI was 3.24 µM.

**Q.** And the TGI [29]?
**A.** Its TGI is 9.13 µM.

**Q.** What about the TGI [30] of the same compound?
**A.** The TGI was 3.56 µM.

**Q.** And the TGI [31]?
**A.** The TGI was 7.96 µM.

**Q.** And the TGI [32]?
**A.** Its TGI is 6.54 µM.

**Q.** And the TGI [33]?
**A.** The TGI was 4.91 µM.

**Q.** And the TGI [34]?
**A.** Its TGI is 9.16 µM.

**Q.** What about the TGI [35] of the same compound?
**A.** The TGI was 3.12 µM.

**Q.** What about the TGI [36] of the same compound?
**A.** Its TGI is 6.86 µM.

**Q.** And the TGI [37]?
**A.** The TGI was 5 µM.

**Q.** What about the TGI [38] of the same compound?
**A.** The TGI was 17.7 µM.

**Q.** What about the TGI [39] of the same compound?
**A.** Its TGI is 6.17 µM.

**Q.** What about the TGI [40] of the same compound?
**A.** The TGI was 3.99 µM.

**Q.** And the TGI [41]?
**A.** Its TGI is 5.98 µM.

**Q.** And the TGI [42]?
**A.** Its TGI is 22.3 µM.

**Q.** And the TGI [43]?
**A.** The TGI was 3.96 µM.

**Q.** What about the TGI [44] of the same compound?
**A.** Its TGI is 3.18 µM.

**Q.** And the TGI [45]?
**A.** The TGI was 5.37 µM.

**Q.** What about the TGI [46] of the same compound?
**A.** The TGI was 3.99 µM.

**Q.** And the TGI [47]?
**A.** Its TGI is 3.14 µM.

**Q.** What about the TGI [48] of the same compound?
**A.** Its TGI is 3.26 µM.

**Q.** What about the TGI [49] of the same compound?
**A.** The TGI was 28.6 µM.

**Q.** And the TGI [50]?
**A.** Its TGI is 3.28 µM.

**Q.** And the TGI [51]?
**A.** The TGI was 6.94 µM.

**Q.** What about the TGI [52] of the same compound?
**A.** The TGI was 6.97 µM.

**Q.** And the TGI [53]?
**A.** The TGI was 9.55 µM.

**Q.** And the TGI [54]?
**A.** Its TGI is 5.52 µM.

**Q.** And the TGI [55]?
**A.** The TGI was 3.33 µM.

**Q.** And the TGI [56]?
**A.** Its TGI is 11.7 µM.

**Q.** And the TGI [57]?
**A.** The TGI was 7.62 µM.

**Q.** What about the TGI [58] of the same compound?
**A.** Its TGI is 4.54 µM.
